Source: patent US20170298051A1, “ACTIVATOR OF ADIPONECTIN RECEPTOR” (THE UNIVERSITY OF TOKYO, priority 2013, published 2017)

Target: T1, AdipoR1 (Homo sapiens, UniProt Q96A54)
T1 sequence (Q96A54 1-375): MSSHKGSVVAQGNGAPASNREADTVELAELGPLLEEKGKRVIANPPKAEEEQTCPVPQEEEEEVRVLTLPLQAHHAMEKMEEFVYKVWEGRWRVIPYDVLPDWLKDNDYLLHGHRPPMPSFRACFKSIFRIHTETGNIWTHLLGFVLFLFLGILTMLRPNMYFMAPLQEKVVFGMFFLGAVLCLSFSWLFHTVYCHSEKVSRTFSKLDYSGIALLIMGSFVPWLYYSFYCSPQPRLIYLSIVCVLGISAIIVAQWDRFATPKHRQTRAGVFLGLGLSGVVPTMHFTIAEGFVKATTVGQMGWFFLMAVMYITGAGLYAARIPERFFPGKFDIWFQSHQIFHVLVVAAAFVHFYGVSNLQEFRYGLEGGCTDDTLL
Assay: Measurement of AMPK phosphorylation ability (Assay 1), HEK 293T cells, Western blotting
Format: cell-based
Set-up: HEK 293T cells (ATCC; CRL-3216, medium; host or cells: HEK 293T
Conditions: 10 minutes
Protocol: The AMPK phosphorylation ability of the respective compounds according to the present invention was measured by using differentiated C2C12 cells or HEK 293T cells.
HEK 293T cells (ATCC; CRL-3216, medium; DMEM, Fetal Bovine Serum (FBS)) were cultured in a 12- or 24-well plate until they reached 100% confluency (37° C., 5% CO2).
After starvation, a test compound listed in Tables 10 and 11 (concentration: 25 μM, 50 μM) was added thereto, and after 10 minutes, the medium was discarded and the plate was frozen with liquid nitrogen.
To the 12- or 24-well cell plate which had been frozen was added 100 or 150 μL of Cell lysis buffer pH 7.4 (50 mM HEPES (pH 7.4), 2 mM sodium orthovanadate, 10 mM sodium pyrophosphate, 10 mM NaF, 2 mM EDTA, 2 mM EGTA, 0.1% (v/v) NP-40, 0.2 mM PMSF), and the cells were scraped off with a cell scraper, suspended and transferred into a micro centrifugal tube. And then, the cells were ultrasonically crushed (1 second×3 times) with a sonicator. Centrifugation was performed at 4° C. at 15,000 rpm for 15 minutes, and the supernatant was recovered into a new tube.
To 100 μL of the supernatant was added 25 μL of 5× sample buffer (280 mM Tris-HCl (pH 6.9), 40% glycerol, 10% (3-mercaptoethanol, 13% SDS, a small amount of bromophenol blue) and mixed together. The rest of the supernatant was used for protein quantification, and the protein concentrations were uniformed by adding 1× sample buffer depending on the concentration of each sample.
An electrophoresis chamber was filled with 1× SDS buffer (25 mM Tris-HCl, 250 mM glycine, 0.1% SDS), and the sample was applied to a well of polyacrylamide gel. Electrophoresis was performed until the bromophenol blue in the sample reached to the bottom of the gel.
A filter paper was soaked in 1× Transfer buffer sufficiently, above which the PVDF membrane and the gel after electrophoresis were stacked in this order, and thereabove a filter paper which had been soaked in 1× Transfer buffer sufficiently was further stacked, from which an air was removed and the resultant was set in semi-dry type transfer apparatus and transferred (7V, 35 minutes).
An unnecessary portion of the blotted membrane was cutoff, and the rest was immediately soaked in blocking buffer (5% skimmed milk in Rinse buffer), and shaken at room temperature at 40 rpm for 3 hours.
After blocking, the membrane was transferred into Rinse buffer, and washed at room temperature for 10 minutes while shaking. The membrane was soaked in a primary antibody solution (AMPK alpha Antibody (Cell signaling; #2532) 1/1,000 in Rinse buffer, Phospho-AMPK alpha (Thr172) (40H9) antibody (Cell signaling; #2535) 1/1,000 in Rinse buffer), and shaken at 4° C. at 40 rpm overnight.
The membrane was soaked in a secondary antibody solution (goat anti-rabbit IgG-HRP Antibody (Santa Cruz; sc-2030) 1/2,000 in Rinse buffer), and shaken at room temperature at 40 rpm for 1 hour.
After the membrane was washed for 45 minutes in the same way as after the primary antibody reaction, the membrane was soaked in a chemiluminescent reaction solution (ECL Western Blotting Detection Reagents, GE Healthcare) for about 1 minute. An excess of the reaction solution was removed, and then the membranes were arranged on a transparent film and sandwiched with it, with which an X-ray film was exposed in a darkroom (for about several seconds to 60 seconds) to develop the film.
The X-ray film was scanned to take the image, for which the band was measured by using the image analysis software “Image J” to determine the respective amounts of pAMPK and AMPK.

SMILES	pAMPK/AMPK (%) (25 μM)	pAMPK/AMPK (%) (50 μM)
CC(C)c1ccc(OCC(=O)NC2CCN(C(C)c3ccccc3)CC2)cc1 (stereo not drawn) [Compound 2]	77.78	90.47
Cc1cc(OCC(=O)NC2CCN(C(N)=O)CC2)ccc1C(C)C [Compound 3]	39.02	44.32
CC(c1ccccc1)N1CCC(NC(=O)COc2ccc(-c3ccccc3)cc2)CC1 (stereo not drawn) [Compound 7]	79.86	94.13
CC(c1ccccc1)N1CCC(NC(=O)COc2ccc(C(F)(F)F)cc2)CC1 (stereo not drawn) [Compound 9]	23.69	62.46
COc1cc(C(C)=O)ccc1OCC(=O)NC1CCN(C(C)c2ccccc2)CC1 (stereo not drawn) [Compound 13]	40.65	39.95
CCOc1ccc(C(=O)N2CCC(NC(=O)COc3ccc([N+](=O)[O-])cc3)CC2)cc1 [Compound 22]	61.45	67.26
CCOc1ccccc1C(=O)N1CCC(NC(=O)OCc2ccc([N+](=O)[O-])cc2)CC1 [Compound 23]	51.41	49.81
CCCOc1ccc(OCC(=O)NC2CCN(Cc3ccccc3)C(C)C2)cc1 (stereo not drawn) [Compound 41]	62.03	69.38
CCCOc1ccc(OCC(=O)NC2CCN(C(C)c3ccccc3)CC2)cc1 (stereo not drawn) [Compound 43]	77.13	82.95
CCCOc1ccc(OCC(=O)NC2CCN(C(=O)c3ccc(OCC)cc3)CC2)cc1 [Compound 44]	72.14	78.77
COc1ccccc1CN1CCN(C(=O)CCNC(=O)c2ccccc2C)CC1 [Compound 49]	42.40	34.07
COc1ccc(CN2CCN(C(=O)CCNC(=O)c3ccccc3C)CC2)cc1OC [Compound 50]	39.00	71.13
COc1ccc(CN2CCN(C(=O)CCNC(=O)c3ccccc3)CC2)c(OC)c1OC [Compound 51]	33.33	55.14
CC(C)(C)c1ccc(C(=O)NCCC(=O)N2CCN(Cc3cccc(O)c3)CC2)cc1 [Compound 52]	66.63	85.17
O=C(NCCC(=O)N1CCN(Cc2cccc(O)c2)CC1)c1ccc(Cl)cc1 [Compound 54]	57.51	33.78
O=C(NCCC(=O)N1CCN(Cc2ccc(F)cc2Cl)CC1)c1ccc(Cl)cc1 [Compound 55]	61.64	105.20
O=C(NCCC(=O)N1CCN(Cc2cccc(O)c2)CC1)c1ccc(Br)cc1 [Compound 56]	49.23	40.38
COc1ccccc1CN1CCN(C(=O)CCNC(=O)c2ccc(Cl)cc2)CC1 [Compound 57]	30.26	45.31
COc1ccccc1CN1CCN(C(=O)CCNC(=O)c2ccc(Br)cc2)CC1 [Compound 58]	41.20	62.58
COc1ccc(CN2CCN(C(=O)CCNC(=O)c3ccc(Br)cc3)CC2)cc1OC [Compound 59]	74.09	78.14
COc1ccc(CN2CCN(C(=O)CCNC(=O)c3ccc(Cl)cc3)CC2)c(OC)c1OC [Compound 60]	34.44	76.81
CCOc1ccc(CN2CCN(C(=O)CCNC(=O)c3ccc(F)cc3Cl)CC2)cc1 [Compound 61]	78.20	76.51
COc1ccc(CN2CCN(C(=O)CCNC(=O)c3ccc(F)cc3F)CC2)cc1OC [Compound 62]	72.75	80.92
Cc1ccccc1CN1CCN(C(=O)CCNC(=O)c2ccc([N+](=O)[O-])cc2)CC1 [Compound 63]	65.40	68.22
COc1ccc(CN2CCN(C(=O)CCNC(=O)c3ccc([N+](=O)[O-])cc3)CC2)cc1 [Compound 65]	62.79	69.84

Continued, values first:

pAMPK/AMPK (%) (25 μM)	pAMPK/AMPK (%) (50 μM)	SMILES
70.10	63.92	Cc1ccccc1CN1CCC(NC(=O)COc2ccc(C(C)C)cc2)CC1 [Compound 1]
47.44	45.44	COc1ccccc1CN1CCC(NC(=O)COc2ccc(C)cc2)CC1 [Compound 4]
69.72	62.88	CCc1ccc(OCC(=O)NC2CCN(Cc3ccc(OC)c(F)c3)CC2)cc1 [Compound 5]
24.57	60.56	CC(C)(C)c1ccc(OCC(=O)NC2CCN(Cc3ccc(F)cc3)CC2)cc1 [Compound 6]
77.49	72.23	Cc1ccc(C(=O)N2CCC(NC(=O)COc3ccc(C(F)(F)F)cc3)CC2)cc1 [Compound 8]
83.62	72.56	O=C(COc1ccc(I)cc1)NC1CCN(Cc2ccccc2)CC1 [Compound 10]
63.62	51.87	CC(=O)c1ccc(OCC(=O)NC2CCN(Cc3ccccc3)CC2C)cc1 (stereo not drawn) [Compound 14]
55.49	46.30	CCC(=O)c1ccc(OCC(=O)NC2CCN(Cc3ccccc3C)CC2)cc1 [Compound 16]
88.72	75.82	CCC(=O)c1ccc(OCC(=O)NC2CCN(Cc3ccc(Cl)c(Cl)c3)CC2)cc1 [Compound 17]
59.58	72.81	CCC(=O)c1ccc(OCC(=O)NC2CCN(Cc3ccccc3)CC2C)cc1 (stereo not drawn) [Compound 18]
47.30	60.30	NC(=O)c1ccc(OCC(=O)NC2CCN(Cc3ccc(F)c(F)c3)CC2)cc1 [Compound 20]
23.68	60.46	COc1ccc(CN2CCC(NC(=O)COc3ccc([N+](=O)[O-])cc3)CC2)cc1F [Compound 24]
40.07	42.87	O=C(COc1ccc(N2CCCC2=O)cc1)NC1CCN(C(=O)c2ccccc2F)CC1 [Compound 25]
55.06	56.65	CC1CN(Cc2ccccc2)CCC1NC(=O)COc1ccc(N2CCCC2=O)cc1 (stereo not drawn) [Compound 26]
45.54	37.30	CCOc1ccc(C(=O)N2CCC(NC(=O)COc3ccc(N4CCCC4=O)cc3)CC2)cc1 [Compound 27]
71.21	78.89	Cc1cccc(CN2CCC(NC(=O)COc3ccc(C4SCCCS4)cc3)CC2)c1 [Compound 28]
72.45	74.42	Cc1ccc(C(=O)N2CCC(NC(=O)COc3ccc(C4SCCCS4)cc3)CC2)cc1 [Compound 29]
64.98	61.18	CCOc1ccc(OCC(=O)NC2CCN(Cc3ccccc3C)CC2)cc1 [Compound 39]
69.97	89.62	CCCOc1ccc(OCC(=O)NC2CCN(C(=O)c3ccc(C)cc3)CC2)cc1 [Compound 42]
67.44	82.01	O=C(COc1ccc(Oc2ccccn2)cc1)NC1CCN(Cc2ccccc2)CC1 [Compound 45]
